Laboratory results as given in the NIST ThermoML archive (doi:10.1016/j.jct.2005.10.009).

Assays:
[1] = 101.33 kPa, Liquid; for speed of sound: Pulse-echo method; for mass density: Pycnometric method
[2] = molar heat capacity at constant pressure; details: 101 kPa, Liquid, Small sample (50 mg) DSC

CCCCCCCCCCO [decan-1-ol]
Details | mass density [kg/m3] | molar heat capacity at constant pressure [J/K/mol] | speed of sound [m/s]
[1], 293.1 K | – | – | 1397.2
[1], 293.15 K | 829.77 | – | –
[1], 298.07 K | – | – | 1380
[1], 298.15 K | 826.38 | – | –
[1], 303.04 K | – | – | 1362.8
[1], 303.15 K | 822.98 | – | –
[1], 308.04 K | – | – | 1345.8
[1], 308.15 K | 819.62 | – | –
[1], 313.01 K | – | – | 1329
[1], 313.15 K | 816.15 | – | –
[1], 318.15 K | 812.67 | – | –
[1], 318.18 K | – | – | 1311.7
[2], 290.91 K | – | 364.49 | –
[2], 291.15 K | – | 364.8 | –
[2], 292.15 K | – | 366.05 | –
[2], 293.15 K | – | 367.19 | –
[2], 294.15 K | – | 368.25 | –
[2], 295.15 K | – | 369.35 | –
[2], 296.15 K | – | 370.35 | –
[2], 297.15 K | – | 371.6 | –
[2], 298.15 K | – | 372.77 | –
[2], 299.15 K | – | 373.71 | –
[2], 300.15 K | – | 374.91 | –
[2], 301.15 K | – | 375.89 | –
[2], 302.15 K | – | 377.05 | –
[2], 303.15 K | – | 378.2 | –
[2], 304.15 K | – | 379.47 | –
[2], 305.15 K | – | 380.58 | –
[2], 306.15 K | – | 381.75 | –
[2], 307.15 K | – | 382.43 | –
[2], 308.15 K | – | 384.6 | –
[2], 309.15 K | – | 385.42 | –
[2], 310.15 K | – | 386.61 | –
[2], 311.15 K | – | 387.89 | –
[2], 312.15 K | – | 389.03 | –
[2], 313.15 K | – | 390.28 | –
[2], 314.15 K | – | 391.58 | –
[2], 315.15 K | – | 392.8 | –
[2], 316.15 K | – | 394.11 | –
[2], 317.15 K | – | 395.3 | –
[2], 318.15 K | – | 396.66 | –
[2], 318.39 K | – | 396.93 | –

CCCCCCC [heptane]
[1]
Details | mass density [kg/m3] | speed of sound [m/s]
293.13 K | – | 1151.9
293.15 K | 683.81 | –
298.12 K | – | 1130.3
298.15 K | 679.6 | –
303.1 K | – | 1108.8
303.15 K | 675.38 | –
308.07 K | – | 1087.5
308.15 K | 671.05 | –
313.03 K | – | 1066.3
313.15 K | 666.78 | –
318.15 K | 662.42 | –
318.33 K | – | 1043.9
